This passage reports RP-LC retention time results from the METLIN SMRT retention time set (Domingo-Almenara et al. 2019).

The nature of this data set: gradient 5% acetonitrile 3 min, to 50% in 2 min, to 85% in 15 min, held 3 min, 100 µL/min. As to conditions: column: Zorbax Extend-C18 2.1 x 50 mm; eluents: water / acetonitrile, 0.1% formic acid. In outline:
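Retention time was recorded from adduct peaks, which were picked computationally and each inspected manually. Pure standards ran in mixtures of ~100 molecules on HPLC coupled to a quadrupole time-of-flight mass spectrometer, in positive and negative ionization mode, through a Zorbax Extend-C18 column (2.1 × 50 mm, 1.8 μm) at 100 μL/min. Eluents were water and acetonitrile, each with 0.1% formic acid.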
In the case of `COc1ccc(Br)cc1CNC(=O)C1CCN(C(=O)c2cc3ccsc3[nH]2)CC1`, the RP-LC retention time is 839 s. Under `O=C(CCc1nnn2c1CN(C(=O)COc1ccc(F)cc1)CC2)N1CCCC1` stands 665 s; under `O=C(NCCCN1CCCCCC1)c1ccc2c(c1)NC(=O)C1CCCCN21` (stereo unspecified), 609 s; under `CCC(=O)NC1Cc2ccccc2C(c2ccccc2)C1` (stereo unspecified), 997 s. Compound `CSc1ccc(-c2nc3c(C)cccn3c2Nc2ccc3c(c2)OCCO3)cc1` displayed an RP-LC retention time of 749 s.

As to `COc1ccc(-c2ccc(=O)n(Cc3nc(-c4ccccc4Cl)no3)n2)cc1`, the RP-LC retention time came out at 962 s. `COc1cccc(S(=O)(=O)N2CCc3nc(-c4ccccc4)ncc3C2)c1` gave an RP-LC retention time of 1050 s. `O=C(CCC(=O)N1c2ccccc2NC2=C(C(=O)CCC2)C1c1ccco1)Nc1ccccc1` (stereo unspecified): the RP-LC retention time came to 744 s. Under `COc1ccc(C2CC(=O)N(c3cccc(Cl)c3)C(=O)C2)cc1` stands 939 s; under `Cc1ccc(Nc2c(-c3ccc(N(C)C)cc3)nc3cnccn23)c(Br)c1`, 990 s; under `CCc1nc(-c2csc(S(=O)(=O)N3CCC(C(=O)NC4CCCCCC4)CC3)c2)no1`, 997 s. Under `CCOC(=O)C1CCN(Cc2nnn(-c3ccccc3)c2C)CC1` stands 614 s; under `CN1c2cc(Cl)ccc2C(=O)NC12CCN(C(=O)NCc1ccc(F)cc1)CC2`, 820 s. Under `CCCNC(=O)c1cn2ccnc(-c3ccc(C)cc3)c2n1` stands 878 s. For the compound `COc1ccc2c(c1)-c1nc(NC(=O)c3cccc(F)c3)sc1CC2`, the RP-LC retention time was 1120 s. `O=C(Cn1c(SCc2cccc(F)c2)nc2cccnc21)N1CCCC1` showed an RP-LC retention time of 647 s.

`O=C(NCCc1csc(-c2ccc(F)cc2)n1)c1ccco1` registered an RP-LC retention time of 868 s. With `COCCn1c(SCc2nc(-c3ccc(F)cc3)no2)nc2cc3c(cc2c1=O)OCO3`, the RP-LC retention time was 1070 s. In turn, `CCN1CCn2c(nc3cc(C(=O)NCc4ccccc4C(F)(F)F)ccc32)C1=O` came in with an RP-LC retention time of 741 s. `CCNC(=O)C1CCN(c2nccc3sccc23)CC1` returned an RP-LC retention time of 558 s. Under `COCCCN1C(=O)c2ccc(-c3ccco3)n2CC1(C)C(=O)NCc1ccccc1` (stereo unspecified) stands 817 s. For `Cc1cc(NC(=O)c2ccc3c(c2)nnn3Cc2ccccc2)no1` the value was 819 s; for `CC(=O)N(C)Cc1nc2ccccc2n1CCOc1ccccc1Cl`, 599 s; for `COc1ccc(OCc2nc(-c3ccc4nnn(C)c4c3)no2)cc1`, 916 s. For `COc1ccc(OC)c(-c2ccc(=O)n(CCc3nc(-c4ccc(F)cc4)no3)n2)c1` the value was 977 s; for `Cc1ccc(C)c(NC(=O)c2cc(C)n3nccc3n2)c1`, 1030 s; for `O=C(NCc1ccc(F)cc1)c1nnc(-c2ccc(S(=O)(=O)N3CCCCC3)cc2)o1`, 1160 s.

In the case of `CCN1CCN(CCNC(=O)CN2C(=O)C3CCCCN3c3ccc(C(=O)N4CCCC4)cc32)CC1` (stereo unspecified), the RP-LC retention time was 591 s.

`O=C(NCc1ccc2c(c1)OCO2)c1nnc(-c2ccc(S(=O)(=O)N3CCOCC3)cc2)o1`: the RP-LC retention time worked out at 804 s. For the compound `O=C(NCc1ccc2c(c1)OCO2)C1CCCN(c2ccc(=O)n(-c3cccc(Cl)c3)n2)C1` (stereo unspecified), the RP-LC retention time stood at 857 s. In the case of `CC(=O)Nc1ccc(CCc2nc3ccc(C(=O)NCCC4=CCCCC4)cc3[nH]2)cc1`, the RP-LC retention time was 669 s.

On to `CC(C)(CO)NCc1ccc(-c2ccc(Cl)cc2)o1`, for which the RP-LC retention time was found to be 655 s. Consider `COc1ccccc1-c1noc(C2CCCN2C(=O)Nc2cc(C)cc(C)c2)n1` (stereo unspecified), for which the RP-LC retention time came out at 957 s. As to `Nc1cc(Nc2ccc(Br)cc2)nc(N)n1`, the RP-LC retention time was found to be 688 s. Compound `CC(C)c1cc(N2CCN(C(=O)c3ccc4c(c3)OCO4)CC2)nc2nncn12` returned an RP-LC retention time of 610 s. For `COc1cccc(CNC(=O)c2cn3cccc(C)c3n2)c1OC` the value was 541 s. The compound `CCC1Oc2ccc(S(=O)(=O)N3CCC(C(=O)NC4CCCCC4)CC3)cc2NC1=O` (stereo unspecified) had an RP-LC retention time of 838 s.

`COc1cccc(C(=O)NC2CCN(c3cc(-c4ccc(Cl)cc4)[nH]n3)C2)c1OC` (stereo unspecified): the RP-LC retention time stood at 807 s.

`Cc1nn(-c2ccc(-c3ccccc3)nn2)c(C)c1S(=O)(=O)N1CCOCC1` showed an RP-LC retention time of 887 s. With `CC(NC(=O)C1CCCN(c2cnc3nccnc3c2)C1)c1cccnc1` (stereo unspecified), the RP-LC retention time worked out at 598 s.

In turn, `O=C(Cn1cccc1-c1nnc(C2CCC2)o1)N1CCc2ccccc2C1` showed an RP-LC retention time of 915 s.

The compound `CCOc1ccccc1C(=O)NC1CCN(c2cc(-c3ccc(Cl)cc3)[nH]n2)C1` (stereo unspecified) yielded an RP-LC retention time of 879 s. Under `O=C(O)CCNS(=O)(=O)c1ccc(Cl)c(-c2nnc(-c3ccccc3)o2)c1` stands 781 s; under `CC(C)Sc1nnc(N2CCN(c3ccc(F)cc3)CC2)s1`, 1000 s. For the compound `CC1CC(=O)c2cnc(N3CCN(c4ccccc4)CC3)nc2C1` (stereo unspecified), the RP-LC retention time was found to be 1080 s. In turn, `O=C1CN(Cc2ccc3c(c2)OCO3)C2CS(=O)(=O)CC2N1c1cccc(Cl)c1` (stereo unspecified) returned an RP-LC retention time of 770 s. Under `COc1cc2c(Oc3ccc4[nH]c(C)cc4c3F)ncnc2cc1OCCCN1CCCC1` stands 709 s.

For `Cn1nc2c(c1NC(=O)C1CCCN1S(=O)(=O)c1ccc(F)cc1)CCC2` (stereo unspecified), the RP-LC retention time is 700 s. For `CN(C)c1ccc(N2C=C(C(=O)N3CCCC3)S(=O)(=O)c3ccccc32)cc1` the value was 811 s.

`O=C(NCC1CCCO1)c1ccc(Nc2c(-c3ccccc3)nc3cnccn23)cc1` (stereo unspecified) had an RP-LC retention time of 1140 s. For `Cc1cccc(CNC(=O)CCc2conc2-c2ccccc2)c1` the value was 923 s. In turn, `O=C(Cn1nc2n(c1=O)CCCC2)Nc1cccc(Br)c1` yielded an RP-LC retention time of 686 s. As for `COCCCNC(=O)C1CCCN(S(=O)(=O)c2ccc(OC)c(OC)c2)C1` (stereo unspecified), the RP-LC retention time was determined as 699 s. Under `COc1cc(-c2nc3ncccn3c2Nc2cccc(C(F)(F)F)c2)ccc1O` stands 700 s. For `COc1cccc(C(=O)Nc2nnc(C3CC(=O)N(c4ccccc4)C3)o2)c1` (stereo unspecified) the value was 690 s; for `O=C(CCCn1c(=O)c2cccn2c2ccc(Br)cc21)NCc1ccccn1`, 646 s; for `COc1ccc(F)cc1S(=O)(=O)NC1CCc2nnc(C)n2CC1` (stereo unspecified), 613 s. Under `CCCn1cc(S(=O)(=O)Nc2ccccc2F)c2cccnc21` stands 869 s; under `Cn1nc(CNC(=O)C2CC(=O)N(C3CCCCC3)C2)c2c1CCN(S(C)(=O)=O)C2` (stereo unspecified), 645 s. In turn, `CCOc1ccccc1C(=O)Nc1cccn2nc(CC)nc12` had an RP-LC retention time of 1140 s. Under `O=C(NC1CCCC1)NC1CCN(c2ccccc2)C1=O` (stereo unspecified) stands 726 s. Regarding `Cc1cc(C)n2c(Nc3c(C)cccc3C)c(-c3cccc(Cl)c3)nc2n1`, the RP-LC retention time is 902 s.

`Cn1nccc1-c1csc(S(=O)(=O)NC2CCCC2)c1` came in with an RP-LC retention time of 806 s. Under `CCN(CC)C(=O)C1CCN(S(=O)(=O)c2ccc3c(c2)NC(=O)CO3)CC1` stands 680 s; under `COC(=O)C1=CN(c2ccc(F)cc2)c2ccc(F)cc2S1(=O)=O`, 847 s. For `Cc1ccc(NC(=O)N2CCc3c(c(-c4nc(C5CC5)no4)nn3C)C2)cc1` the value was 867 s; for `O=C1CC(c2nc(-c3ccccn3)no2)CN1c1ccc2c(c1)OCO2` (stereo unspecified), 707 s. In turn, `CN(C)CCNC(=O)C1CCN(c2ccc(-c3cccs3)nn2)CC1` registered an RP-LC retention time of 571 s. For `O=C(CCS(=O)(=O)c1ccccc1)N1CCN(CC(F)(F)F)CC1` the value was 711 s; for `COC(=O)C1=C(NC(=O)COc2ccc(Cl)cc2Cl)CCS1`, 1110 s. Regarding `O=C(NCCOc1cccc2cccnc12)c1cnn(-c2ccccc2)n1`, the RP-LC retention time came to 623 s. For `CCn1ccc(C(=O)Nc2ccc3c(c2)Sc2ncccc2C(=O)N3C(C)C)n1`, the RP-LC retention time is 790 s.

`COc1ccc(Cl)cc1NC(=O)c1cnc2sccn2c1=O`: the RP-LC retention time worked out at 839 s. Take `CC(C)n1cnc2ccc(-c3noc(-c4cccs4)n3)cc21`: the RP-LC retention time turned out to be 746 s. `CS(=O)(=O)N1CCN(C(=O)CCCn2nc(-c3ccc(F)cc3)ccc2=O)CC1`: the RP-LC retention time was determined as 652 s. As to `Cc1ccc(-n2nc(N3CCCN(S(=O)(=O)c4ccccc4C)CC3)ccc2=O)cc1`, the RP-LC retention time is 910 s. In the case of `O=C(CCc1c(-c2ccc(Br)cc2)nc2ccccn12)NCCC1=CCCCC1`, the RP-LC retention time came out at 753 s.

For the compound `CCOC(=O)c1ccc(NC(=O)N2CCCC2c2cc(C(C)C)no2)cc1` (stereo unspecified), the RP-LC retention time stood at 942 s. For `CC(=O)Nc1ccc(C(=O)NC2CCN(c3cc(-c4ccc(F)cc4)[nH]n3)C2)cc1` (stereo unspecified) the value was 641 s; for `Cc1ccc(N2CC(NC(=O)Nc3nc(C)cs3)CC2=O)cc1` (stereo unspecified), 660 s; for `O=C(Nc1cnc(-c2ccccc2)nc1)c1cccc(F)c1`, 970 s.
